As a reminder, the IC50 is the midpoint of a concentration-inhibition curve. The low end stands for inhibition by little substance, the high end for a need for much substance.

The assay has as its target T1, human type 1 glycine transporter (GlyT1) (Homo sapiens, UniProt P48067).
T1 construct: T98G cells (glioma cells) expressing human type 1 glycine transporter (GlyT1) were used
T1 sequence (P48067 1-706): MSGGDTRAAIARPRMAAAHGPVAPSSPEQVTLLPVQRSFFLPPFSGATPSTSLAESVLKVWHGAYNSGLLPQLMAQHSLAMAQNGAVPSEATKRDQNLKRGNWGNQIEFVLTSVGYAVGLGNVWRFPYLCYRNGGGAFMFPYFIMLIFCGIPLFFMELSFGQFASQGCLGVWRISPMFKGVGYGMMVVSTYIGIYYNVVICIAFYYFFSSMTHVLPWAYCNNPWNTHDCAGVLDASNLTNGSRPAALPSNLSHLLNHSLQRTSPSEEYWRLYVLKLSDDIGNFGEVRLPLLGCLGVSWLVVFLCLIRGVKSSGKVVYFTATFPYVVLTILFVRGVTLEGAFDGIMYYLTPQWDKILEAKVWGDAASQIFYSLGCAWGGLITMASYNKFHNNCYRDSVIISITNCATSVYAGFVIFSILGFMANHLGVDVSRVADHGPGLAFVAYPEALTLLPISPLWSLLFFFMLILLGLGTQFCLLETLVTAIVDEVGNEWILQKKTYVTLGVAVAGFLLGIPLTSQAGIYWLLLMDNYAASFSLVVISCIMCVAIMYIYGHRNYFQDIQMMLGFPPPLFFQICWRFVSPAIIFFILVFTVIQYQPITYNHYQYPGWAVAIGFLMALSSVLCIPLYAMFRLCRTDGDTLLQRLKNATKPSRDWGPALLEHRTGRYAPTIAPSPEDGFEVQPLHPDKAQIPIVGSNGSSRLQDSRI
The assay can be described thus: Glycine uptake inhibition experiment ([3H]glycine uptake). It counts as cell-based. To be noted: GlyT1. A digest of the protocol:
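T98G glioma cells expressing human GlyT1 were pretreated 10 min with compound in HEPES buffer pH 7.4 (0.2% BSA), then incubated with compound plus 250 nM final [3H]glycine for 15 min at room temperature. Intracellular radioactivity was counted after NaOH lysis; 10 μM ALX5407 defined non-specific uptake. IC50 came from 10^−9–10^−5 M curves.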
`O=C(NC(c1cccc(-c2cnccn2)c1)C1(O)CCC(F)(F)CC1)c1nccc(C(F)(F)F)c1Cl` (centres unmarked) [Compound 159, 3-chloro-N-{(4,4-difluoro-1-hydroxycyclohexyl)[3-(pyrazin-2-yl)phenyl]methyl}-4-(trifluoromethyl)pyridine-2-carboxamide] came in with an IC50 of 320 nM. This lies in the sub-micromolar range. With `O=C(NC(c1cccc(-c2ncccn2)c1)C1(O)CCC(F)(F)CC1)c1nccc(C(F)(F)F)c1Cl` (centres unmarked) [Compound 160, 3-chloro-N-{(4,4-difluoro-1-hydroxycyclohexyl)[3-(pyrimidin-2-yl)phenyl]methyl}-4-(trifluoromethyl)pyridine-2-carboxamide], 880 nM corresponded to half-maximal inhibition (IC50). Compared with the last compound, the IC50 is about 2.8-fold higher.

In the case of `O=C(N[C@H](c1cccc(Cl)c1)[C@]1(O)CC[C@@H](F)CC1)c1nccc(C(F)(F)F)c1Cl` [Compound 161, 3-chloro-N-[(R)-(3-chlorophenyl)(cis-4-fluoro-1-hydroxycyclohexyl)methyl]-4-(trifluoromethyl)pyridine-2-carboxamide], it took 6700 nM to reach half-maximal inhibition (IC50). This IC50 lies about 7.6-fold higher than the previous one. Next, `O=C(N[C@@H](c1cccc(Cl)c1)[C@]1(O)CC[C@@H](F)CC1)c1nccc(C(F)(F)F)c1Cl` [Compound 162, 3-chloro-N-[(S)-(3-chlorophenyl)(cis-4-fluoro-1-hydroxycyclohexyl)methyl]-4-(trifluoromethyl)pyridine-2-carboxamide]: 65 nM. Next, `O=C(NC(c1cccc(Cl)c1)[C@]1(O)CC[C@@H](F)CC1)c1ccnc(C(F)(F)F)c1Cl` (stereo partly drawn) [Compound 163, 3-chloro-N-[(3-chlorophenyl)(cis-4-fluoro-1-hydoxycyclohexyl)methyl]-2-(trifluoromethyl)pyridine-4-carboxamide]: 390 nM. Under `O=C(NC(c1ccc(F)c(F)c1F)C1(O)CCC(F)(F)CC1)c1nccc(C(F)(F)F)c1Cl` (centres unmarked) [Compound 170, 3-chloro-N-[(4,4-difluoro-1-hydroxycyclohexyl)(2,3,4-trifluorophenyl)methyl]-4-(trifluoromethyl)pyridine-2-carboxamide] stands 630 nM; under `O=C(NC(c1ccc(F)c(F)c1F)C1(O)CCC(F)(F)CC1)c1ccnc(C(F)(F)F)c1Cl` (centres unmarked) [Compound 171, 3-chloro-N-[(4,4-difluoro-1-hydroxycyclohexyl)(2,3,4-trifluorophenyl)methyl]-2-(trifluoromethyl)pyridine-4-carboxamide], 1100 nM. The compound `CCn1cc(-c2cccc(C(NC(=O)c3ccnc(C(F)(F)F)c3)C3(O)CCC(F)(F)CC3)c2)cn1` (centres unmarked) [Compound 172, N-{(4,4-difluoro-1-hydroxycyclohexyl)[3-(1-ethyl-1H-pyrazol-4-yl)phenyl]methyl}-2-(trifluoromethyl)pyridine-4-carboxamide] registered an IC50 of 5000 nM. Under `CCn1cc(-c2cccc(C(NC(=O)c3ccnc(Cl)c3Cl)C3(O)CCC(F)(F)CC3)c2)cn1` (centres unmarked) [Compound 173, 2,3-dichloro-N-{(4,4-difluoro-1-hydroxycyclohexyl)[3-(1-ethyl-1H-pyrazol-4-yl)phenyl]methyl}pyridine-4-carboxamide] stands 1000 nM; under `CCn1cc(-c2cccc(C(NC(=O)c3c(Cl)cccc3Cl)C3(O)CCC(F)(F)CC3)c2)cn1` (centres unmarked) [Compound 174, 2,6-dichloro-N-{(4,4-difluoro-1-hydroxycyclohexyl)[3-(1-ethyl-1H-pyrazol-4-yl)phenyl]methyl}benzamide], 1100 nM; under `CCn1cc(-c2cccc(C(NC(=O)c3ccc(Cl)c(Cl)c3)C3(O)CCC(F)(F)CC3)c2)cn1` (centres unmarked) [Compound 175, 3,4-dichloro-N-{(4,4-difluoro-1-hydroxycyclohexyl)[3-(1-ethyl-1H-pyrazol-4-yl)phenyl]methyl}benzamide], 4000 nM. In the case of `CCn1cc(-c2cccc(C(NC(=O)c3c(Cl)cc(Cl)cc3Cl)C3(O)CCC(F)(F)CC3)c2)cn1` (centres unmarked) [Compound 176, 2,4,6-trichloro-N-{(4,4-difluoro-1-hydroxycyclohexyl)[3-(1-ethyl-1H-pyrazol-4-yl)phenyl]methyl}benzamide], it took 1000 nM to reach half-maximal inhibition (IC50). Next, `CCn1cc(-c2cccc(C(NC(=O)c3cc(C(F)(F)F)ccc3C)C3(O)CCC(F)(F)CC3)c2)cn1` (centres unmarked) [Compound 179, N-{(4,4-difluoro-1-hydroxycyclohexyl)[3-(1-ethyl-1H-pyrazol-4-yl)phenyl]methyl}-2-methyl-5-(trifluoromethyl)benzamide]: 610 nM; `CCn1cc(-c2cccc(C(NC(=O)c3cc(C(F)(F)F)ccc3Cl)C3(O)CCC(F)(F)CC3)c2)cn1` (centres unmarked) [Compound 180, 2-chloro-N-{(4,4-difluoro-1-hydroxycyclohexyl)[3-(1-ethyl-1H-pyrazol-4-yl)phenyl]methyl}-5-(trifluoromethyl)benzamide]: 210 nM; `CCn1cc(-c2cccc(C(NC(=O)c3cccc(C(F)(F)F)c3F)C3(O)CCC(F)(F)CC3)c2)cn1` (centres unmarked) [Compound 181, N-[(4,4-difluoro-1-hydroxycyclohexyl)[3-(1-ethyl-1H-pyrazol-4-yl)phenyl]methyl}-2-fluoro-3-(trifluoromethyl)benzamide]: 1500 nM. The compound `CCn1cc(-c2cccc(C(NC(=O)c3c(Cl)ccc(Cl)c3OC)C3(O)CCC(F)(F)CC3)c2)cn1` (centres unmarked) [Compound 182, 3,6-dichloro-N-[(4,4-difluoro-1-hydroxycyclohexyl)[3-(1-ethyl-1H-pyrazol-4-yl)phenyl]methyl}-2-methoxybenzamide] gave an IC50 of 580 nM. This IC50 lies about 2.6-fold lower than the previous one.

`CCn1cc(-c2cccc(C(NC(=O)c3c(Cl)ccc(OC)c3F)C3(O)CCC(F)(F)CC3)c2)cn1` (centres unmarked) [Compound 183, 6-chloro-N-{(4,4-difluoro-1-hydroxycyclohexyl)[3-(1-ethyl-1H-pyrazol-4-yl)phenyl]methyl}-2-fluoro-3-methoxybenzamide] displayed a concentration for half-maximal inhibition (IC50) of 2000 nM. This IC50 lies about 3.4-fold higher than the previous one. Next, `CCn1cc(-c2cccc(C(NC(=O)c3ccc(C(F)(F)F)cc3C)C3(O)CCC(F)(F)CC3)c2)cn1` (centres unmarked) [Compound 184, N-{(4,4-difluoro-1-hydroxycyclohexyl)[3-(1-ethyl-1H-pyrazol-4-yl)phenyl]methyl}2-methyl-4-(trifluoromethyl)benzamide]: 860 nM. For `O=C(N[C@@H](c1cccc(Cl)c1)[C@]1(O)CC[C@@H](F)CC1)c1ccnc(C(F)(F)F)c1Cl` [Compound 186, 3-chloro-N-[(S)-(3-chlorophenyl)(cis-4-fluoro-1-hydroxycyclohexyl)methyl]-2-(trifluoromethyl)pyridine-4-carboxamide], the IC50 amounted to 150 nM. Against the preceding compound, the IC50 is about 5.7-fold lower. Compound `O=C(N[C@@H](c1cccc(Cl)c1)[C@]1(O)CC[C@H](F)CC1)c1nccc(C(F)(F)F)c1Cl` [Compound 187, 3-chloro-N-[(S)-(3-chlorophenyl)(trans-4-fluoro-1-hydroxycyclohexyl)methyl]-4-(trifluoromethyl)pyridine-2-carboxamide] registered a concentration for half-maximal inhibition (IC50) of 210 nM. Under `CCn1cc(-c2cccc(C(NC(=O)c3ccc(Cl)cc3Cl)C3(O)CCC(F)(F)CC3)c2)cn1` (centres unmarked) [Compound 191, 2,4-dichloro-N-{(4,4-difluoro-1-hydroxycyclohexyl)[3-(1-ethyl-1H-pyrazol-4-yl)phenyl]methyl}benzamide] stands 1300 nM; under `CCn1cc(-c2cccc(C(NC(=O)c3ccc(F)cc3C(F)(F)F)C3(O)CCC(F)(F)CC3)c2)cn1` (centres unmarked) [Compound 192, N-{(4,4-difluoro-1-hydroxycyclohexyl)[3-(1-ethyl-1H-pyraozl-4-yl)phenyl]methyl}-4-fluoro-2-(trifluoromethyl)benzamide], 340 nM. In turn, `CCn1cc(-c2cccc(C(NC(=O)c3cc(C(F)(F)F)cnc3Cl)C3(O)CCC(F)(F)CC3)c2)cn1` (centres unmarked) [Compound 202, 2-chloro-N-{(4,4-difluoro-1-hydroxycyclohexyl)[3-(1-ethyl-1H-pyrazol-4-yl)phenyl]methyl}-5-(trifluoromethyl)pyridine-3-carboxamide] returned an IC50 of 900 nM. The compound `CCn1cc(-c2cccc(C(NC(=O)c3cc(Cl)ccc3C(F)(F)F)C3(O)CCC(F)(F)CC3)c2)cn1` (centres unmarked) [Compound 203, 5-chloro-N-{(4,4-difluoro-1-hydroxycyclohexyl)[3-(1-ethyl-1H-pyrazol-4-yl)phenyl]methyl}-2-(trifluoromethyl)benzamide] displayed an IC50 of 730 nM. Next, `CCn1cc(-c2cccc(C(NC(=O)c3ccccc3Cl)C3(O)CCC(F)(F)CC3)c2)cn1` (centres unmarked) [Compound 205, 2-chloro-N-[(4,4-difluoro-1-hydroxycyclohexyl)[3-(1-ethyl-1H-pyrazol-4-yl)phenyl]methyl}benzamide]: 1900 nM; `CCn1cc(-c2cccc(C(NC(=O)c3ncc(Cl)cc3C(F)(F)F)C3(O)CCC(F)(F)CC3)c2)cn1` (centres unmarked) [Compound 206, 5-chloro-N-{(4,4-difluoro-1-hydroxycyclohexyl)[3-(1-ethyl-1H-pyrazol-4-yl)phenyl]methyl}-3-(trifluoromethyl)pyridine-2-carboxamide]: 8700 nM.
